Data published in US20240400564A1 (Syndax Pharmaceuticals, Inc, priority 2021, published 2024).

Assays:
[1] = biological target: T1, human Menin and N-terminal portion of human MLL (amino acids 4-43) (Homo sapiens, UniProt O00255); assay: Menin-MLL competition assay (HTRF); type: binding; conditions: 1 hr incubation
T1 construct: H-FL-Menin diluted to 4 nM in assay buffer
T1 sequence (O00255 1-610): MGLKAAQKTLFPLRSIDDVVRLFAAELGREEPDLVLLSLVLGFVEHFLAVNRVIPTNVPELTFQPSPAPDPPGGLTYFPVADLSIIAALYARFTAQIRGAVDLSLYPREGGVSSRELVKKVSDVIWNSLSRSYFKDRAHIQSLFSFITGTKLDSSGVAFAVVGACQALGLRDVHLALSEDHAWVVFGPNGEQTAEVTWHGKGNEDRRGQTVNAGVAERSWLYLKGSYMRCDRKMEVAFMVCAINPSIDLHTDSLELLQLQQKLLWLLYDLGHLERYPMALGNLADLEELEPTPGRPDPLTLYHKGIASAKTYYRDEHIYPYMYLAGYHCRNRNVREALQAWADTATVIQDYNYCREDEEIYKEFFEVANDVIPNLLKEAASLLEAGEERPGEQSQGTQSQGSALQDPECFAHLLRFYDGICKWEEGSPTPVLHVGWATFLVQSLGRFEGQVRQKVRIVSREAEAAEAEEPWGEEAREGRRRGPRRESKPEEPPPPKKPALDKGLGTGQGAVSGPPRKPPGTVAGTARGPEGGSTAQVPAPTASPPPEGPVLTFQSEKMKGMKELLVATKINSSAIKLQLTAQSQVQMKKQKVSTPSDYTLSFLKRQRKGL
Source text: Menin-MLL is a competition assay between human Menin and N-terminal portion of human MLL representing amino acids 4-43 of the protein. The interaction between Menin and MLL peptide was monitored by HTRF employing Terbium labeled anti-His6 antibody directed to the N-terminal His6-tag on recombinant Menin and FITC group covalently attached to the MLL peptide. The N-terminal fragment of MLL, retained in all MLL fusion proteins, is involved in the interactions with Menin, and this protein-protein interaction is critical for the MLL fusion proteins mediated leukemogenic transformations.
For IC50 determination test compounds were prepared as 10 mM DMSO stock solutions. Considering DMSO as the vehicle in the assay system. Lower sub-stocks of 50 μM were prepared from the 10 mM stock solution. To test the compounds in assay, 3.16-fold serial dilutions are made in 100% DMSO. Mid-stock of 50×compounds (50 μM) were serially diluted (3.16 fold) in 100% DMSO in Polypropylene plate. In assay plate 1 micro-litre of the previously prepared compound dilution was stamped. H-FL-Menin diluted to 4 nM in assay buffer (50 mM Tris-HCl, pH 7.4, 50 mM NaCl, freshly prepared 1 mM DTT, 0.01% BSA, 0.005% Triton X-100) was pre-incubated with 8 nM anti-His6-Tb for 30 min at room temperature. FITC-MLL-4-43 was diluted to 2 nM in assay buffer and 25 μL was dispensed into each well of the assay plate followed by addition of 25 μl of pre-incubated H-FL-Menin and anti-His6-Tb mixture. Final concentration H-FL-Menin diluted to 1 nM in assay plate with 2 nM anti-His6-Tb and 1 nM FITC-MLL-4-43. After 1 hr incubation at room temperature, the HTRF signal was measured on the Spark multi-label plate reader. Resulting data were captured as a ratio of RFU520/RFU485×1000. The max values were obtained from 0% inhibition in presence of 2% DMSO and the min. values were 100% inhibition in presence of 1 μM reference compound.

[2] = biological target: hERG (Homo sapiens, UniProt Q12809); assay: Patch clamp assay (hERG tail currents, whole-cell)
Chain of hERG (Q12809 whole entry): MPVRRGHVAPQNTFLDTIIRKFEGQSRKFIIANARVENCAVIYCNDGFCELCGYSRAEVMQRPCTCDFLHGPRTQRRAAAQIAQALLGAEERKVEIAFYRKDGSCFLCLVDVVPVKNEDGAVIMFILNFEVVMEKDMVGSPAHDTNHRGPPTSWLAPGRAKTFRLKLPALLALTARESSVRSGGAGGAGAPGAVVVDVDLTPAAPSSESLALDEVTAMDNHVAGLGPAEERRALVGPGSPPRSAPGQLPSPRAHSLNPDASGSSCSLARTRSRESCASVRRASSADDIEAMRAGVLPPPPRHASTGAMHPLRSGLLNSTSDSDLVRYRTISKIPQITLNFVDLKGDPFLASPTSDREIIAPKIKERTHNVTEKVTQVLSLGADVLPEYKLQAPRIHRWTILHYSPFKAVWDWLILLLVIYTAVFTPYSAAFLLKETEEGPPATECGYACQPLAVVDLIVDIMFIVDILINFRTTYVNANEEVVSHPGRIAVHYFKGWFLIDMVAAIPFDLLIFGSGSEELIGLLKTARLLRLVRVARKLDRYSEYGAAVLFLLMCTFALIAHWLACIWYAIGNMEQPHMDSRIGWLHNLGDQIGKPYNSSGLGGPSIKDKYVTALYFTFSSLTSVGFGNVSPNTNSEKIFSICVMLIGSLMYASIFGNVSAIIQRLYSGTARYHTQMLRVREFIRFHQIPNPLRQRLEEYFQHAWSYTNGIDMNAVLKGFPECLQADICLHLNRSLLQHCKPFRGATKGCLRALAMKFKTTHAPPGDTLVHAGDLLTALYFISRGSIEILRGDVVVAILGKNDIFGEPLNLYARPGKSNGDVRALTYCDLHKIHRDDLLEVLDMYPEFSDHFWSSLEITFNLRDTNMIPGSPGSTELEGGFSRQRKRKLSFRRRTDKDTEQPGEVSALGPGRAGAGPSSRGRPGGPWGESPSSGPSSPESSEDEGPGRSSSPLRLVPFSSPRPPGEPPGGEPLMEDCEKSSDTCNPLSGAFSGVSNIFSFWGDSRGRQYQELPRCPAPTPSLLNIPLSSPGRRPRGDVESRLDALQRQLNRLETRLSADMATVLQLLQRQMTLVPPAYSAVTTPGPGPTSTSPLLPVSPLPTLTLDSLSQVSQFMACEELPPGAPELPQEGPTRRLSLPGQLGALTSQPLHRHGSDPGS

| Structure (SMILES) | IC50 [1] [nM] | hERG % Remaining ([2]; 10 μM compound) | hERG % Remaining ([2]; 30 μM compound) | hERG % Remaining ([2]; 1 μM compound) | hERG % Remaining ([2]; 3 μM compound) | hERG % Remaining ([2]; 100 μM compound) |
| --- | --- | --- | --- | --- | --- | --- |
| CCS(=O)(=O)N[C@@H]1CC[C@@H](CN2CCC3(CC2)CN(c2ncncc2Oc2ccc(F)cc2C(=O)N(C(C)C)C2CC2)C3)OC1 [Example 19, N-Cyclopropyl-2-((4-(7-(((2S,5R)-5-(ethylsulfonamido)tetrahydro-2H-pyran-2-yl)methyl)-2,7-diazaspiro[3.5]nonan-2-yl)pyrimidin-5-yl)oxy)-5-fluoro-N-isopropylbenzamide] | < 100 | +++ (≥66%) | ++ (233% and ≤66%) | – | – | – |
| CCS(=O)(=O)N[C@@H]1CC[C@@H](CN2CCC3(CC2)CN(c2ncncc2Oc2ccc(F)cc2C(=O)N(CC(F)F)C(C)C)C3)OC1 [Example 34, N-(2,2-Difluoroethyl)-2-((4-(7-(((2S,5R)-5-(ethylsulfonamido)tetrahydro-2H-pyran-2-yl)methyl)-2,7-diazaspiro[3.5]nonan-2-yl)pyrimidin-5-yl)oxy)-5-fluoro-N-isopropylbenzamide] | < 100 | +++ (≥66%) | ++ (233% and ≤66%) | +++ (≥66%) | +++ (≥66%) | + (<33%) |
| CCS(=O)(=O)N[C@@H]1CC[C@@H](CN2CCC3(CC2)CN(c2ncncc2Oc2ccc(F)cc2C(=O)N(CCC#N)C(C)C)C3)OC1 [Example 43, N-(2-Cyanoethyl)-2-((4-(7-(((2S,5R)-5-(ethylsulfonamido)tetrahydro-2H-pyran-2-yl)methyl)-2,7-diazaspiro[3.5]nonan-2-yl)pyrimidin-5-yl)oxy)-5-fluoro-N-isopropylbenzamide] | < 100 | +++ (≥66%) | ++ (233% and ≤66%) | – | – | – |
| CCN(C(=O)c1cc(F)ccc1Oc1cncnc1N1CC2(CCN(C[C@@H]3CC[C@@H](NS(=O)(=O)C4CC4)CO3)CC2)C1)C(C)C [Example 4, 2-((4-(7-(((2S,5R)-5-(Cyclopropanesulfonamido)tetrahydro-2H-pyran-2-yl)methyl)-2,7-diazaspiro[3.5]nonan-2-yl)pyrimidin-5-yl)oxy)-N-ethyl-5-fluoro-N-isopropylbenzamide] | < 100 | +++ (≥66%) | +++ (≥66%) | – | – | – |
| CC(C)N(C(=O)c1cc(F)ccc1Oc1cncnc1N1CC2(CCN(C[C@@H]3CC[C@@H](NS(=O)(=O)C(C)C)CO3)CC2)C1)C(C)C [Example 14, 5-Fluoro-N,N-diisopropyl-2-((4-(7-(((2S,5R)-5-((1-methylethyl)sulfonamido)tetrahydro-2H-pyran-2-yl)methyl)-2,7-diazaspiro[3.5]nonan-2-yl)pyrimidin-5-yl)oxy)benzamide] | < 100 | +++ (≥66%) | ++ (233% and ≤66%) | – | +++ (≥66%) | + (<33%) |
| CCS(=O)(=O)N[C@@H]1CC[C@@H](CN2CCC3(CC2)CN(c2ncncc2Oc2ccc(F)cc2C(=O)N(C(C)C)[C@H]2CCOC2)C3)OC1 [Example 33, 2-((4-(7-(((2S,5R)-5-(Ethylsulfonamido)tetrahydro-2H-pyran-2-yl)methyl)-2,7-diazaspiro[3.5]nonan-2-yl)pyrimidin-5-yl)oxy)-5-fluoro-N-isopropyl-N-((S)-tetrahydrofuran-3-yl)benzamide] | < 100 | +++ (≥66%) | +++ (≥66%) | – | – | – |
| CC(C)N(C(=O)c1cc(F)ccc1Oc1cncnc1N1CC2(CCN(C[C@@H]3CC[C@@H](NS(=O)(=O)C4COC4)CO3)CC2)C1)C(C)C [Example 16, 5-Fluoro-N,N-diisopropyl-2-((4-(7-(((2S,5R)-5-(oxetane-3-sulfonamido)tetrahydro-2H-pyran-2-yl)methyl)-2,7-diazaspiro[3.5]nonan-2-yl)pyrimidin-5-yl)oxy)benzamide] | < 100 | +++ (≥66%) | +++ (≥66%) | – | – | – |
| CCN(C(=O)c1cc(F)ccc1Oc1cncnc1N1CC2(CCN(C[C@@H]3CC[C@@H](NS(=O)(=O)CC)CO3)CC2)C1)C(C)C [Example 2, N-Ethyl-2-((4-(7-(((2S,5R)-5-(ethylsulfonamido)tetrahydro-2H-pyran-2-yl)methyl)-2,7-diazaspiro[3.5]nonan-2-yl)pyrimidin-5-yl)oxy)-5-fluoro-N-isopropylbenzamide] | < 100 | +++ (≥66%) | +++ (≥66%) | – | – | – |
| CCN(C(=O)c1cc(F)ccc1Oc1cncnc1N1CC2(CCN(C[C@@H]3CC[C@@H](NS(=O)(=O)N(C)C)CO3)CC2)C1)C(C)C [Example 49, 2-((4-(7-(((2S,5R)-5-((N,N-Dimethylsulfamoyl)amino)tetrahydro-2H-pyran-2-yl)methyl)-2,7-diazaspiro[3.5]nonan-2-yl)pyrimidin-5-yl)oxy)-N-ethyl-5-fluoro-N-isopropylbenzamide] | < 100 | +++ (≥66%) | +++ (≥66%) | – | – | – |
| CCS(=O)(=O)N[C@@H]1CC[C@@H](CN2CCC3(CC2)CN(c2ncncc2Oc2ccc(F)cc2C(=O)N(C(C)C)C(C)C)C3)OC1 [Example 13, 2-((4-(7-(((2S,5R)-5-(Ethylsulfonamido)tetrahydro-2H-pyran-2-yl)methyl)-2,7-diazaspiro[3.5]nonan-2-yl)pyrimidin-5-yl)oxy)-5-fluoro-N,N-diisopropylbenzamide] | < 100 | +++ (≥66%) | ++ (233% and ≤66%) | +++ (≥66%) | +++ (≥66%) | ++ (233% and ≤66%) |
| CCN(C(=O)c1cc(F)ccc1Oc1cncnc1N1CC2(CCN(C[C@@H]3CC[C@@H](NS(C)(=O)=O)CO3)CC2)C1)C(C)C [Example 1, N-Ethyl-5-fluoro-N-isopropyl-2-((4-(7-(((2S,5R)-5-(methylsulfonamido)tetrahydro-2H-pyran-2-yl)methyl)-2,7-diazaspiro[3.5]nonan-2-yl)pyrimidin-5-yl)oxy)benzamide] | < 100 | +++ (≥66%) | ++ (233% and ≤66%) | – | – | – |
| C[C@H]1COCCN1C(=O)c1cc(F)ccc1Oc1cncnc1N1CC2(CCN(C[C@@H]3CC[C@@H](NS(=O)(=O)C4CC4)CO3)CC2)C1 [Example 40, N-((3R,6S)-6-((2-(5-(4-Fluoro-2-((S)-3-methylmorpholine-4-carbonyl)phenoxy)pyrimidin-4-yl)-2,7-diazaspiro[3.5]nonan-7-yl)methyl)tetrahydro-2H-pyran-3-yl)cyclopropanesulfonamide] | < 100 | – | – | – | – | – |
| C[C@@H]1COC[C@H](C)N1C(=O)c1cc(F)ccc1Oc1cncnc1N1CC2(CCN(C[C@@H]3CC[C@@H](NS(C)(=O)=O)CO3)CC2)C1 [Example 23, N-((3R,6S)-6-((2-(5-(2-((3S,5R)-3,5-Dimethylmorpholine-4-carbonyl)-4-fluorophenoxy)pyrimidin-4-yl)-2,7-diazaspiro[3.5]nonan-7-yl)methyl)tetrahydro-2H-pyran-3-yl)methanesulfonamide] | < 100 | – | – | – | – | – |
| CCS(=O)(=O)N[C@@H]1CC[C@@H](CN2CCC3(CC2)CN(c2ncncc2Oc2ccc(F)cc2C(=O)N(C(C)C)[C@@H]2CCOC2)C3)OC1 [Example 46, 2-((4-(7-(((2S,5R)-5-(Ethylsulfonamido)tetrahydro-2H-pyran-2-yl)methyl)-2,7-diazaspiro[3.5]nonan-2-yl)pyrimidin-5-yl)oxy)-5-fluoro-N-isopropyl-N-((R)-tetrahydrofuran-3-yl)benzamide] | < 100 | – | – | – | – | – |
| CC(C)N(C(=O)c1cc(F)ccc1Oc1cncnc1N1CC2(CCN(C[C@@H]3CC[C@@H](NC(=O)OC(C)(C)C)CO3)CC2)C1)C1CC1 [Example 17, tert-Butyl ((3R,6S)-6-((2-(5-(2-(cyclopropyl(isopropyl)carbamoyl)-4-fluorophenoxy)pyrimidin-4-yl)-2,7-diazaspiro[3.5]nonan-7-yl)methyl)tetrahydro-2H-pyran-3-yl)carbamate] | < 100 | – | – | – | – | – |
